Reference: US20060276537A1, “Use of ladostigil for the treatment of multiple sclerosis” (priority 2005, published 2006)
Like-named read-outs stand apart in the source and are kept apart here.

Tests used:
Type in all cases: in vivo
[1] = tested on: chronic progressive EAE induced by pMOG35-55 in C57BL/6 mice; experiment: MOG-induced chronic progressive EAE in C57BL/6 mice, clinical scoring; settings: gavage once daily from day 0; for % Inhibition: vs control group mean score
Protocol: MOG (Myelin oligodendrocyte glycoprotein) is a member of the immunoglobulin superfamily expressed exclusively in CNS myelin. It is one of the most encephalitogenic proteins and is widely used to induce EAE in different rodent strains. In C57BL/6 mice, immunization with the MOG peptide pMOG35-55 in CFA induces chronic progressive EAE. Ladostigil was tested in this model in order to assess its ability to inhibit the disease.
EAE was induced by subcutaneous injection of encephalitogenic emulsion at a volume of 0.2 ml/mouse in the right flank. On the day of induction, pertussis toxin was injected intraperitoneally at a volume dose of 0.2 ml/mouse. The injection of the pertussis toxin was repeated after 48 hours. At the end of the experiment, 6-7 brains from control and the ladostigil groups were dissected and frozen at −70° C. for CHE (cholinesterase) determination and 6-7 brains were dissected and frozen for MAO (monoamine oxidase) determination. Before sacrifice, blood for ChE determination was taken on heparine, hemolysed 1/20 in 10 mM cold phosphate buffer pH=6.0 and stored at −70° C. until the assay.
90 female C57Bl/6 mice 8-10 weeks old obtained from Harlan animal breeding center were used in the study. Mice were allocated randomly into 6 groups:
Both compounds were administered by gavage once daily during the whole experiment (30 days) at a volume of 0.2 ml/mouse.
The mice were observed daily from the 10th day post-EAE induction and the EAE clinical signs were scored. The scores were recorded on observation cards according to the grades described in Table 5:
The number of sick animals (animals with a score of ≧1 at any point) in each group was summed.
The incidence of disease and the % activity were calculated as follows: [formula] [formula] [formula]
The maximal scores of all mice in each group were summed.
The mean maximal score and the % activity of the group were calculated as follows: [formula] [formula] [formula]
The individual scores (IMS) of each of the mice during the observation period were summed (score 6 will be counted forward).
The GMS of the group and its % activity were calculated as follows: [formula] [formula] [formula]
Their dates of onset were calculated as day of termination +1.

[2] = target: T1, butyrylcholinesterase (BChE) (Mus musculus, UniProt Q03311); experiment: Cholinesterase assay (modified Ellman, BTC substrate) in brain and blood of treated EAE mice; settings: for Brain BuChE U/g: results on the limit of assay sensitivity; for inhibition at 10.2 mg/kg / inhibition at 25.5 mg/kg / inhibition at 51 mg/kg / inhibition at 70.1 mg/kg: mouse
T1 construct: Homogenate of 100 mg brain tissue in 1 ml 100 mM phosphate buffer pH=8.0 was prepared; from tissue; host or cells: brain homogenate and blood hemolysate of ladostigil-treated EAE mice
T1 sequence (Q03311 30-603): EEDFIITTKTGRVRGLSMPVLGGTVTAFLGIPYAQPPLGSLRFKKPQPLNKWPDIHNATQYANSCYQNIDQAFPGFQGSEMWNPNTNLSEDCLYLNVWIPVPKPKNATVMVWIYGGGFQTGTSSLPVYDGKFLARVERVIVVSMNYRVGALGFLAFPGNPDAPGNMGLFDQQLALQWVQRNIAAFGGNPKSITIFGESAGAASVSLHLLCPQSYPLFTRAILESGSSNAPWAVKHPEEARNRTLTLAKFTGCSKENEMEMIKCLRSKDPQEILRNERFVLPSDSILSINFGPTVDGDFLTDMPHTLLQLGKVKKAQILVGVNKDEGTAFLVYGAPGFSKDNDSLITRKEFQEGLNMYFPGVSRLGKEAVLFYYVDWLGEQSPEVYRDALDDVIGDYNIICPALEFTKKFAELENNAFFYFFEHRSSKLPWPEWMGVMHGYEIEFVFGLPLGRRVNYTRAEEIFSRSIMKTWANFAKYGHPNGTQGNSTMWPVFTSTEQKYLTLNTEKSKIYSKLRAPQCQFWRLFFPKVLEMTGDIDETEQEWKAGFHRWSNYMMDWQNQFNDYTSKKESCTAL
Protocol: From the mice of Example 2, acetylcholinesterase (AChE) and butyrylcholinesterase (BChE) activities were determined by a modification of Ellman's spectophotometric method using acetyltiocholine (ATC) and butyryltiocholine (BTC) as substrates.
Homogenate of 100 mg brain tissue in 1 ml 100 mM phosphate buffer pH=8.0 was prepared. 0.4 ml of crude homogenate was added to 1.2 ml pre-warmed 4 mM 5,5′-Dithiobis(2-nitrobenzoic acid) (DTNB or Ellman's reagant); 30 μl from this mixture were added to 210 μl pre-warmed (28° C.) 50 mM phosphate buffer in a microplate; and the reaction was started by addition of 10 μl ATC or BTC (final concentration=1 mM) or water (for the blank reaction) The increase in optical density (OD) at 412 nm was monitored for 3 minutes and the slope of the straight line obtained by linear regression provided the activity in terms of ΔOD/min using SOFTMAX® software. Blank reaction was subtracted.
Conversion of ΔOD/min into Enzyme Activity was Performed as Follows: Unit enzyme/gram tissue=OD/min*0.25/10.54*4*1000/30*11
The same procedure was performed as with brain homogenate using 50 μl of ¼ hemolysate/DTNB mixture.
Enzyme activity in the blood was calculated in units/1 ml whole blood.
BuChE activity was calculated directly from the ΔOD/min of BTC.

[3] = tested on: relapsing remitting EAE in 129/SvEv mice; experiment: MOG-induced relapsing remitting EAE in 129/SvEv mice
Protocol: This experiment is conducted to evaluate whether ladostigil tartrate is effective in alleviating EAE. EAE is induced in mice by the administration of myelin oligodendrocyte glycoprotein (MOG). Injection of MOG into 129/SvEv mice produces a relapsing remitting EAE (murine model of relapsing remitting multiple sclerosis).
One week before MOG immunization, 129/SvEv mice receive a sub-optimal dose of ladostigil tartrate or saline vehicle. Over a period of 1-2 months following MOG immunization, clinical scores are monitored by weighing animals on a daily basis and grading the severity of EAE. In addition to clinical evaluation, groups of mice are sacrificed at weekly intervals for routine histological examination (hematoxylin-eosin and luxol fast blue for evidence of inflammation and demyelination, respectively). Also, cellular infiltrates are examined for CD3 (T lymphocytes), CD56 (natural killer cells) and CD19 (B cell immunohistochemistry). Loss of neurons and oligodendrocytes is assessed using immunohistochemistry for NeuN and glutathione-S-transferase pi isoform, respectively. Furthermore, axonal integrity is examined using immunohistochemistry for β-amyloid precursor protein or neurofilament, and by Bielchowsky silver stains. The neuropathological assessments are focused on the optic nerve, lumbar/sacral cord and brain stem.

[4] = sub-optimal dose from one week before MOG immunization, vs saline vehicle

SMILES: C#CCN[C@@H]1CCc2ccc(OC(=O)N(C)CC)cc21 [Ladostigil, R(+)-6-(N-methyl,N-ethyl-carbamoyloxy)-N′-propargyl-1-aminoindan]
- Group Mean Score ([1]; ladostigil salt 10.2 mg/kg): 2.75 ± 1.3
- Incidence ([1]; ladostigil salt 10.2 mg/kg): 15/15
- Mean Maximal Score ([1]; ladostigil salt 10.2 mg/kg): 4.33 ± 1.1
- Mean Onset ([1]; ladostigil salt 10.2 mg/kg): 12.0 ± 2.4 days
- Mortality ([1]; ladostigil salt 10.2 mg/kg): 2/15
- % Inhibition ([1]; ladostigil salt 10.2 mg/kg): 9.5%
- Group Mean Score ([1]; ladostigil salt 25.5 mg/kg): 3.08 ± 1.4
- Incidence ([1]; ladostigil salt 25.5 mg/kg): 15/15
- Mean Disease Duration ([1]; ladostigil salt 25.5 mg/kg): 35.3 ± 8.8 days
- Mean Maximal Score ([1]; ladostigil salt 25.5 mg/kg): 4.33 ± 1.0
- Mean Onset ([1]; ladostigil salt 25.5 mg/kg): 11.6 ± 2.1 days
- Mortality ([1]; ladostigil salt 25.5 mg/kg): 3/15
- % Inhibition ([1]; ladostigil salt 25.5 mg/kg): −1.3%
- Group Mean Score ([1]; ladostigil salt 51 mg/kg): 2.26 ± 1.1
- Incidence ([1]; ladostigil salt 51 mg/kg): 15/15
- Mean Disease Duration ([1]; ladostigil salt 51 mg/kg): 31.3 ± 13.2 days
- Mean Maximal Score ([1]; ladostigil salt 51 mg/kg): 3.83 ± 1.1
- Mean Onset ([1]; ladostigil salt 51 mg/kg): 11.4 ± 3.1 days
- Mortality ([1]; ladostigil salt 51 mg/kg): 1/15
- % Inhibition ([1]; ladostigil salt 51 mg/kg): 25.7%
- Incidence ([1]; ladostigil salt 70.1 mg/kg): 15/15
- Mean Maximal Score ([1]; ladostigil salt 70.1 mg/kg): 3.73 ± 1.0
- Mean Onset ([1]; ladostigil salt 70.1 mg/kg): 11.6 ± 2.3 days
- Mortality ([1]; ladostigil salt 70.1 mg/kg): 1/15
- % Inhibition ([1]; ladostigil salt 70.1 mg/kg): 33.2%
- BChE inhibition ([2]; 51 and 70.1 mg/kg/day, brain and blood): 35-42%
- Blood BuChE U/ml ([2]; blood of EAE mice, 10.2 mg/kg salt): 1.52 +/− 0.24 U/ml
- Blood BuChE U/ml ([2]; blood of EAE mice, 25.5 mg/kg salt): 1.47 +/− 0.18 U/ml
- Blood BuChE U/ml ([2]; blood of EAE mice, 51 mg/kg salt): 1.06 +/− 0.21 U/ml
- Blood BuChE U/ml ([2]; blood of EAE mice, 70.1 mg/kg salt): 1.01 +/− 0.18 U/ml
- Brain BuChE U/g ([2]; brain of EAE mice, 10.2 mg/kg salt): 0.35 +/− 0.04 U/g
- Brain BuChE U/g ([2]; brain of EAE mice, 25.5 mg/kg salt): 0.31 +/− 0.04 U/g
- Brain BuChE U/g ([2]; brain of EAE mice, 51 mg/kg salt): 0.22 +/− 0.03 U/g
- Brain BuChE U/g ([2]; brain of EAE mice, 70.1 mg/kg salt): 0.25 +/− 0.06 U/g
- inhibition at 10.2 mg/kg ([2]; blood of EAE mice, 10.2 mg/kg salt, read-out: Blood BchE % inhibition): 6.7%
- inhibition at 25.5 mg/kg ([2]; blood of EAE mice, 25.5 mg/kg salt, read-out: Blood BchE % inhibition): 10.1%
- inhibition at 51 mg/kg ([2]; blood of EAE mice, 51 mg/kg salt, read-out: Blood BchE % inhibition): 35.3%
- inhibition at 70.1 mg/kg ([2]; blood of EAE mice, 70.1 mg/kg salt, read-out: Blood BchE % inhibition): 38.4%
- inhibition at 10.2 mg/kg ([2]; brain of EAE mice, 10.2 mg/kg salt, read-out: Brain BchE % inhibition): 7.9%
- inhibition at 25.5 mg/kg ([2]; brain of EAE mice, 25.5 mg/kg salt, read-out: Brain BchE % inhibition): 18.4%
- inhibition at 51 mg/kg ([2]; brain of EAE mice, 51 mg/kg salt, read-out: Brain BchE % inhibition): 42.1%
- inhibition at 70.1 mg/kg ([2]; brain of EAE mice, 70.1 mg/kg salt, read-out: Brain BchE % inhibition): 34.2%
- incidence and severity of EAE ([3]; compared to control): decreases both the incidence and severity of EAE
- area under the curve (clinical score) [3, 4]: smaller area under the curve
- clinical score [3, 4]: lower clinical score
